Each structure is given as a SMILES string.

In this experiment the target is T1, human PAR-2 (hPAR-2) receptor expressed in HEK-293 T cells in an endogenous manner (Homo sapiens, UniProt P55085).
T1 construct: human PAR-2 (hPAR-2) receptor expressed in HEK-293 T cells in an endogenous manner; endogenous in cells; host or cells: HEK-293 T cells
T1 sequence (P55085 26-397): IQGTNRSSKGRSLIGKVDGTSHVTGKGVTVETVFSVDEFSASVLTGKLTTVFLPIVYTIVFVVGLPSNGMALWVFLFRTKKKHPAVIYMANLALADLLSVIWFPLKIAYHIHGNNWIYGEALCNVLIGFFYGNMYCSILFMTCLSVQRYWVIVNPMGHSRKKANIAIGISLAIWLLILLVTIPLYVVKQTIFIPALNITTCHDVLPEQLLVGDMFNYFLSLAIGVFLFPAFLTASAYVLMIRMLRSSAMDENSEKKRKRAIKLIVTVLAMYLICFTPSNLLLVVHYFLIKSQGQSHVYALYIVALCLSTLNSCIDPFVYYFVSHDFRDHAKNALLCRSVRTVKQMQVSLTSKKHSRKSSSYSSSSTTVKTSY
As to the kind of experiment: In vitro human PAR-2 functional antagonist activity using calcium assays (Fluo4AM, FLIPR Tetra). The experiment is classed as cell-based. The note with it: HEK-293 T cells stimulated by an EC80 of the 2-Furoyl-LIGRLO-NH2 peptide after 10 min incubation with compound; 20 concentrations, duplicate, two independent experiments. On the procedure: In vitro human PAR-2 functional antagonist activity using calcium assays
Examples of the present invention were tested successively for their agonist and antagonist activities on human PAR-2 (hPAR-2) receptor expressed in HEK-293 T cells in an endogenous manner. Compounds exert agonist activity if, by themselves in absence of the 2-Furoyl-LIGRLO-NH2 peptide (selective hPAR-2 agonist), they activate PAR-2; they exert antagonist activity if they decrease the action of the 2-Furoyl-LIGRLO-NH2 peptide on the receptor. The assay used to determine compound activity is based on calcium measurement.
Cell Culture: HEK-293 T cells were maintained in Dulbecco's Modified Eagle's Medium supplemented with 10% Foetal Calf Serum, 1% Penicillin/Streptomycin at 37° C./5% CO2. Flasks for tests (F75) are seeded with 6e+06 cells 24 h before the experiment at 37° C./5% CO2.
Calcium assay: Receptor activity was detected by changes in intracellular calcium measured using the fluorescent Ca^2+ sensitive dye, Fluo4AM (Molecular Probes).
The day of the assay, medium was replaced by assay buffer (HBSS 1× (Gibco 14175-053), Hepes 20 mM, MgSO4-7H2O 1 mM, Na2CO3 3.3 mM, CaCl2-2H2O 1.3 mM, 0.5% BSA, Probenecid 2.5 mM, 0.1 mg/mL Pluronic Acid) and complemented with 1 μM Fluo4AM and cells were incubated during 1:30 h at 37° C.
Cells were then detached, resuspended in assay buffer and seeded in 384 wells, transparent-flat bottom black walled plates (2e+04 cells per well). Plates were incubated at +22° C. for 20 min. Compounds stock solutions were prepared in 100% DMSO and dilutions in test buffer were carried out in polypropylene plates with a digital dispenser (D300e, Tecan). Compounds were added to the cells and intracellular Ca^2+ measurements were collected at the same time on FLIPR Tetra® (Molecular Devices) with specific filters (Exc: 470-495 nm/Em: 515-575 nm).
Agonist and antagonist activities of compounds were consecutively evaluated on the same cell plate. Agonist activity was first measured after 10 min incubation with the compound alone. Then, cells were stimulated by an EC80 of the 2-Furoyl-LIGRLO-NH2 peptide and fluorescence was recorded for an additional 5 min. EC80 of the 2-Furoyl-LIGRLO-NH2 peptide was the concentration giving 80% of the maximal 2-Furoyl-LIGRLO-NH2 response. Agonist activities are evaluated in comparison to basal signals evoked by assay buffer or maximal 2-Furoyl-LIGRLO-NH2 response. […] Antagonist activities are evaluated in comparison to basal signals evoked by assay buffer or EC80 of 2-Furoyl-LIGRLO-NH2 alone.
One may read the IC50 as the midpoint of a concentration-inhibition curve. On to `CC(C)(C)n1cc(-c2ccc(Cl)c(F)c2)c2ccc(C(=O)N3CCC4(CC3)CNC(=O)C4)nc21` [Example 14, 8-(1-(tert-butyl)-3-(4-chloro-3-fluorophenyl)-1H-pyrrolo[2,3-b]pyridine-6-carbonyl)-2,8-diazaspiro[4.5]decan-3-one], for which the IC50 lay in the range of 20 to 10000 nM.
To `CC(C)Cc1nc(-c2ccc(Cl)cc2)n2ccc(C(=O)N3CCN(c4ccc(C(=O)O)cn4)CC3(C)C)cc12` [Example 219, 6-(4-(3-(4-chlorophenyl)-1-isobutylimidazo[1,5-a]pyridine-7-carbonyl)-3,3-dimethylpiperazin-1-yl)nicotinic acid] belongs 20 to 10000 nM.
In the case of `Cc1cc(N2CCN(C(=O)c3ccc4c(-c5ccc(C(F)(F)F)c(F)c5)cn(CC(C)C)c4n3)C(C)(C)C2)nc(C)c1C(=O)O` [Example 144, 6-(4-(3-(3-fluoro-4-(trifluoromethyl)phenyl)-1-isobutyl-1H-pyrrolo[2,3-b]pyridine-6-carbonyl)-3,3-dimethylpiperazin-1-yl)-2,4-dimethylnicotinic acid], the IC50 was < 20 nM.
To `CC[C@@H](C)n1cc(-c2ccc(Cl)c(F)c2)c2ccc(C(=O)N3CCN(c4cc(C)c(C(=O)O)c(C)n4)CC3(C)C)nc21` [Example 165, (R)-6-(4-(1-(sec-butyl)-3-(4-chloro-3-fluorophenyl)-1H-pyrrolo[2,3-b]pyridine-6-carbonyl)-3,3-dimethylpiperazin-1-yl)-2,4-dimethylnicotinic acid] belongs < 20 nM.
Under `CC1(C)C(=O)NCCN1C(=O)c1ccc2c(-c3ccc(Cl)c(F)c3)cn(C3CCOCC3)c2n1` [Example 30, 4-(3-(4-chloro-3-fluorophenyl)-1-(tetrahydro-2H-pyran-4-yl)-1H-pyrrolo[2,3-b]pyridine-6-carbonyl)-3,3-dimethylpiperazin-2-one] stands 20 to 10000 nM; under `CC(C)Cc1nn(-c2ccc(Cl)c(F)c2)c2ccc(C(=O)N3CCC(C(=O)O)C(C)(C)C3)nc12` (stereo not drawn) [Example 69, 1-(1-(4-chloro-3-fluorophenyl)-3-isobutyl-1H-pyrazolo[4,3-b]pyridine-5-carbonyl)-3,3-dimethylpiperidine-4-carboxylic acid], > 10000 nM.
With `Cc1cc(N2CCN(C(=O)c3ccc4c(-c5ccc(Cl)c(F)c5)cn(Cc5ccncc5)c4n3)C(C)(C)C2)nc(C)c1C(=O)O` [Example 149, 6-(4-(3-(4-chloro-3-fluorophenyl)-1-(pyridin-4-ylmethyl)-1H-pyrrolo[2,3-b]pyridine-6-carbonyl)-3,3-dimethylpiperazin-1-yl)-2,4-dimethylnicotinic acid], the IC50 fell in the range of 20 to 10000 nM.
Under `CC(C)(C)n1cc(-c2ccc(Cl)c(F)c2)c2ccc(C(=O)N3CCC4(CCC(=O)N4)CC3)nc21` [Example 202, 8-(1-(tert-butyl)-3-(4-chloro-3-fluorophenyl)-1H-pyrrolo[2,3-b]pyridine-6-carbonyl)-1,8-diazaspiro[4.5]decan-2-one] stands 20 to 10000 nM; under `CC(C)(C)n1cc(-c2ccc(Cl)c(F)c2)c2ccc(C(=O)N3CC[C@H]4CNC(=O)[C@H]43)nc21` [Example 15, (3aS,6aS)-1-(1-(tert-butyl)-3-(4-chloro-3-fluorophenyl)-1H-pyrrolo[2,3-b]pyridine-6-carbonyl)hexahydropyrrolo[3,4-b]pyrrol-6(1H)-one], 20 to 10000 nM.
Under `CC1(C)C(=O)NCCN1C(=O)c1ccc2c(n1)c(C1CCCC1)nn2-c1ccc(Cl)c(F)c1` [Example 76, 4-(1-(4-chloro-3-fluorophenyl)-3-cyclopentyl-1H-pyrazolo[4,3-b]pyridine-5-carbonyl)-3,3-dimethylpiperazin-2-one] stands 20 to 10000 nM; under `CC1(C)CN(C(=O)c2ccc3c(-c4ccc(Cl)c(F)c4)cn(C(C)(C)C)c3n2)CCC1C(=O)O` (stereo not drawn) [Example 22, 1-(1-(tert-butyl)-3-(4-chloro-3-fluorophenyl)-1H-pyrrolo[2,3-b]pyridine-6-carbonyl)-3,3-dimethylpiperidine-4-carboxylic acid], 20 to 10000 nM.
Under `CC1(C)CN(c2ccc(C(N)=O)cn2)CCN1C(=O)c1ccc2c(-c3ccc(Cl)c(F)c3)cn(C(C)(C)C)c2n1` [Example 138, 6-(4-(1-(tert-butyl)-3-(4-chloro-3-fluorophenyl)-1H-pyrrolo[2,3-b]pyridine-6-carbonyl)-3,3-dimethylpiperazin-1-yl)nicotinamide] stands < 20 nM; under `Cc1cc(N2CCN(C(=O)c3ccc4c(-c5ccc(Cl)c(F)c5)cn(C[C@H]5CCOC5)c4n3)C(C)(C)C2)nc(C)c1C(=O)O` [Example 184, (R)-6-(4-(3-(4-chloro-3-fluorophenyl)-1-((tetrahydrofuran-3-yl)methyl)-1H-pyrrolo[2,3-b]pyridine-6-carbonyl)-3,3-dimethylpiperazin-1-yl)-2,4-dimethyinicotinic acid], < 20 nM.
As for `CC(C)Cc1nn(-c2ccc(Cl)c(F)c2)c2ccc(C(=O)N3CCN(C)C(=O)C3)nc12` [Example 63, 4-(1-(4-chloro-3-fluorophenyl)-3-isobutyl-1H-pyrazolo[4,3-b]pyridine-5-carbonyl)-1-methylpiperazin-2-one], the IC50 is > 10000 nM.
Under `Cc1cc(N2CCN(C(=O)c3ccc4c(n3)c(C(C)(C)C)nn4-c3ccc(Cl)c(F)c3)C(C)(C)C2)nc(C)c1C(=O)O` [Example 59, 6-(4-(3-(tert-butyl)-1-(4-chloro-3-fluorophenyl)-1H-pyrazolo[4,3-b]pyridine-5-carbonyl)-3,3-dimethylpiperazin-1-yl)-2,4-dimethylnicotinic acid] stands < 20 nM; under `CC1(C)CN(c2ccc(C(=O)O)cn2)CCN1C(=O)c1ccc2c(-c3ccc(Cl)c(F)c3)cn(C(C)(C)C)c2n1` [Example 137, 6-(4-(1-(tert-butyl)-3-(4-chloro-3-fluorophenyl)-1H-pyrrolo[2,3-b]pyridine-6-carbonyl)-3,3-dimethylpiperazin-1-yl)nicotinic acid], < 20 nM; under `Cc1cc2c(nc1C(=O)N1CCNC(=O)C1(C)C)c(CC(C)C)nn2-c1ccc(Cl)c(F)c1` [Example 81], > 10000 nM.
To `CC(C)(C)n1cc(-c2ccc(Cl)c(F)c2)c2ccc(C(=O)N3CCC(C(=O)O)CC3)nc21` [Example 162, 1-(1-(tert-butyl)-3-(4-chloro-3-fluorophenyl)-1H-pyrrolo[2,3-b]pyridine-6-carbonyl)piperidine-4-carboxylic acid] belongs 20 to 10000 nM; to `CC1(C)CN(C(=O)c2ccc(C(=O)O)cn2)CCN1C(=O)c1ccc2c(-c3ccc(Cl)c(F)c3)cn(C(C)(C)C)c2n1` [Example 169, 6-(4-(1-(tert-butyl)-3-(4-chloro-3-fluorophenyl)-1H-pyrrolo[2,3-b]pyridine-6-carbonyl)-3,3-dimethylpiperazine-1-carbonyl)nicotinic acid], 20 to 10000 nM.
Turning to `CC(C)(C)c1cn(-c2ccc(Cl)c(F)c2)c2ccc(C(=O)N3CCC(CC(=O)O)CC3)nc12` [Example 222, 2-(1-(3-(tert-butyl)-1-(4-chloro-3-fluorophenyl)-1H-pyrrolo[3,2-b]pyridine-5-carbonyl)piperidin-4-yl)acetic acid], the IC50 is > 10000 nM.
To `Cc1cc(NC2CCN(C(=O)c3ccc4c(-c5ccc(Cl)c(F)c5)cn(C(C)(C)C)c4n3)CC2C)nc(C)c1C(=O)O` (stereo not drawn) [Example 198, 6-((1-(1-(tert-butyl)-3-(4-chloro-3-fluorophenyl)-1H-pyrrolo[2,3-b]pyridine-6-carbonyl)-3-methylpiperidin-4-yl)amino)-2,4-dimethylnicotinic acid] belongs 20 to 10000 nM.
